Data on 8 compounds can be found in the supplement of paper PMC10627819.

Common to all, as to assay: Bliss interaction score (quartile over a dose matrix) (fitness difference); higher = more antagonism (negative = synergy)
In one test the test system is S. pneumoniae D39V. The method in brief: (§1)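 Fitness is OD595 at stationary-phase entry relative to the plate's robust no-drug mean, capped at 1. Single-drug fitness was inferred from combinations. The Bliss score is observed minus product-expected fitness, summarised by quartiles over technical, biological and donor/recipient replicates.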
The test system of the next test is S. aureus Newman. The method, boiled down:
as §1

Another test relates to S. aureus DSM 20231. The method in brief: as §1
In the next test the test system is B. subtilis 168. The method, boiled down:
as §1
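Also: first quartile when negative (synergy) and third quartile when positive (antagonism).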

Consider `CC[C@H]1OC(=O)[C@H](C)[C@@H](O[C@H]2C[C@@](C)(OC)[C@@H](O)[C@H](C)O2)[C@H](C)[C@@H](O[C@@H]2O[C@H](C)C[C@H](N(C)C)[C@H]2O)[C@](C)(O)C[C@@H](C)CN(C)[C@H](C)[C@@H](O)[C@]1(C)O` [Azithromycin] + C1=CC(=CC(=C1)Cl)NN=C(C#N)C#N [CCCP], for which the Bliss interaction score in the test on S. pneumoniae D39V was -0.0621; in the test on S. aureus Newman, -0.0482; in the test on S. aureus DSM 20231 it was -0.0316; with B. subtilis 168, -0.104.
The like results for `CC[C@H]1OC(=O)[C@H](C)[C@@H](O[C@H]2C[C@@](C)(OC)[C@@H](O)[C@H](C)O2)[C@H](C)[C@@H](O[C@@H]2O[C@H](C)C[C@H](N(C)C)[C@H]2O)[C@](C)(O)C[C@@H](C)CN(C)[C@H](C)[C@@H](O)[C@]1(C)O` [Azithromycin] + CC1(C)S[C@@H]2[C@H](NC(=O)Cc3ccccc3)C(=O)N2[C@H]1C(=O)O [PenicillinG] were, in that order, 0.0489, -0.087, -0.0514 and 0.0629.
Taken in the same sequence, the figures for `CC[C@H]1OC(=O)[C@H](C)[C@@H](O[C@H]2C[C@@](C)(OC)[C@@H](O)[C@H](C)O2)[C@H](C)[C@@H](O[C@@H]2O[C@H](C)C[C@H](N(C)C)[C@H]2O)[C@](C)(O)C[C@@H](C)CN(C)[C@H](C)[C@@H](O)[C@]1(C)O` [Azithromycin] + CC(=O)O[C@H]1C[C@@]2(C)[C@@H](C[C@@H](O)[C@H]3[C@@]4(C)CC[C@@H](O)[C@@H](C)[C@@H]4CC[C@@]32C)/C1=C(\CCC=C(C)C)C(=O)O [Fusidic acid] were -0.0761, 0.0362, -0.0342 and -0.119.
In the case of `CC[C@H]1OC(=O)[C@H](C)[C@@H](O[C@H]2C[C@@](C)(OC)[C@@H](O)[C@H](C)O2)[C@H](C)[C@@H](O[C@@H]2O[C@H](C)C[C@H](N(C)C)[C@H]2O)[C@](C)(O)C[C@@H](C)CN(C)[C@H](C)[C@@H](O)[C@]1(C)O` [Azithromycin] + CC[C@H]1OC(=O)[C@H](C)C(=O)[C@H](C)[C@@H](O[C@@H]2O[C@H](C)C[C@H](N(C)C)[C@H]2O)[C@](C)(OC)C[C@@H](C)C(=O)[C@H](C)[C@H]2N(CCCCn3cnc(-c4cccnc4)c3)C(=O)O[C@]12C [Telithromycin], the Bliss interaction score with S. pneumoniae D39V was 0.0272; with S. aureus Newman, -0.0389; in the test on S. aureus DSM 20231, -0.0311; in the test with B. subtilis 168, 0.0342.
With `CC[C@H]1OC(=O)[C@H](C)[C@@H](O[C@H]2C[C@@](C)(OC)[C@@H](O)[C@H](C)O2)[C@H](C)[C@@H](O[C@@H]2O[C@H](C)C[C@H](N(C)C)[C@H]2O)[C@](C)(O)C[C@@H](C)CN(C)[C@H](C)[C@@H](O)[C@]1(C)O` [Azithromycin] + CC[C@H]1OC(=O)[C@H](C)[C@@H](O[C@H]2C[C@@](C)(OC)[C@@H](O)[C@H](C)O2)[C@H](C)[C@@H](O[C@@H]2O[C@H](C)C[C@H](N(C)C)[C@H]2O)[C@](C)(O)C[C@@H](C)C(=O)[C@H](C)[C@@H](O)[C@]1(C)O [Erythromycin], the Bliss interaction score in the test with S. pneumoniae D39V is 0.0539; in the test with S. aureus Newman, -0.0668; in the test on S. aureus DSM 20231, -0.056; in the test on B. subtilis 168, -0.0754.
Regarding `CC[C@H]1OC(=O)[C@H](C)[C@@H](O[C@H]2C[C@@](C)(OC)[C@@H](O)[C@H](C)O2)[C@H](C)[C@@H](O[C@@H]2O[C@H](C)C[C@H](N(C)C)[C@H]2O)[C@](C)(O)C[C@@H](C)CN(C)[C@H](C)[C@@H](O)[C@]1(C)O` [Azithromycin] + CC[C@H]1OC(=O)[C@H](C)[C@@H](O[C@H]2C[C@@](C)(OC)[C@@H](O)[C@H](C)O2)[C@H](C)[C@@H](O[C@@H]2O[C@H](C)C[C@H](N(C)C)[C@H]2O)[C@](C)(OC)C[C@@H](C)C(=O)[C@H](C)[C@@H](O)[C@]1(C)O [Clarithromycin], the Bliss interaction score in the test on S. pneumoniae D39V is -0.0473; in the test on S. aureus Newman, -0.0536; in the test on S. aureus DSM 20231, -0.107; in the test with B. subtilis 168, -0.0578.
As for `CC[C@H]1OC(=O)[C@H](C)[C@@H](O[C@H]2C[C@@](C)(OC)[C@@H](O)[C@H](C)O2)[C@H](C)[C@@H](O[C@@H]2O[C@H](C)C[C@H](N(C)C)[C@H]2O)[C@](C)(O)C[C@@H](C)CN(C)[C@H](C)[C@@H](O)[C@]1(C)O` [Azithromycin] + CN(C)[C@@H]1C(O)=C(C(N)=O)C(=O)[C@@]2(O)C(O)=C3C(=O)c4c(O)ccc(Cl)c4[C@@](C)(O)[C@H]3C[C@@H]12 [Clortetracycline], the Bliss interaction score is -0.084 in the test with S. pneumoniae D39V, -0.192 in the test on S. aureus Newman, -0.243 in the test on S. aureus DSM 20231 and -0.344 in the test on B. subtilis 168.
Taken in the same sequence, the figures for `CC[C@H]1OC(=O)[C@H](C)[C@@H](O[C@H]2C[C@@](C)(OC)[C@@H](O)[C@H](C)O2)[C@H](C)[C@@H](O[C@@H]2O[C@H](C)C[C@H](N(C)C)[C@H]2O)[C@](C)(O)C[C@@H](C)CN(C)[C@H](C)[C@@H](O)[C@]1(C)O` [Azithromycin] + CN[C@H](CC(C)C)C(=O)N[C@H]1C(=O)N[C@@H](CC(N)=O)C(=O)N[C@H]2C(=O)N[C@H]3C(=O)N[C@H](C(=O)N[C@H](C(=O)O)c4cc(O)cc(O)c4-c4cc3ccc4O)[C@H](O[C@H]3C[C@](C)(N)[C@@H](O)[C@H](C)O3)c3ccc(c(Cl)c3)Oc3cc2cc(c3O[C@@H]2O[C@H](CO)[C@@H](O)[C@H](O)[C@H]2O[C@H]2C[C@](C)(NCc3ccc(-c4ccc(Cl)cc4)cc3)[C@@H](O)[C@H](C)O2)Oc2ccc(cc2Cl)[C@H]1O [Oritavancin] were 0.0492, -0.0766, -0.0405 and 0.0325.
